Test results published in patent publication US20220041691A1, “METHODS FOR DIAGNOSING OR TREATING POST-TRAUMATIC STRESS DISORDER, AND COMPOSITIONS THEREFOR” (Centre for Addiction and Mental Health, priority 2018, published 2022).
“Also recorded” adds a separate entry of the source.

What was measured:
[1] = biological target: T1, GR-FKBP51 complex (Mus musculus, UniProt Q64378); test: Co-immunoprecipitation of GR-FKBP51 complex in acute mouse brain slices treated with peptide; format: cell-based; settings: versus control TAT peptide
T1 construct: from tissue; host or cells: C57Bl/6 mouse brain (acute slices; whole-brain lysate) and blood lymphocytes
T1 sequence (Q64378 1-456): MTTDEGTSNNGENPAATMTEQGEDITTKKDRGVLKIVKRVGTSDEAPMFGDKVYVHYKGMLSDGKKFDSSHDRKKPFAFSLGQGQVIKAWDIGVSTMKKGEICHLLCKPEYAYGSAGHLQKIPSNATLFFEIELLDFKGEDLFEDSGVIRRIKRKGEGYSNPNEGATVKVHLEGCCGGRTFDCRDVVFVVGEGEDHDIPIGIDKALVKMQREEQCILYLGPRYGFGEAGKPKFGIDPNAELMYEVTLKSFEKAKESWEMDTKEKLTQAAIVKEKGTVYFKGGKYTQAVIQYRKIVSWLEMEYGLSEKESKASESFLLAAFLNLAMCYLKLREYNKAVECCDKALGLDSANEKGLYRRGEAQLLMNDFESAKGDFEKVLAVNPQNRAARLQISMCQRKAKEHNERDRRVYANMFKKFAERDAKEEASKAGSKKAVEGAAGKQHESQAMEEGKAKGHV
Description: Thus, it is concluded that the GRNT-4-1 region is important for GR-FKBP51 complex formation, and that GRpep disrupted the GR-FKBP51 complex.
(§1) Co-immunoprecipitation and Western blot analyses were performed as previously described.^24, 25, 26 For co-immunoprecipitation, 500˜1000 μg solubilized protein was extracted from whole mouse brain and incubated with primary antibody or control IgG (2˜4 μg) for 4 hrs at 4° C., followed by the addition of 25 μl protein A/G plus agarose (Santa Cruz Biotechnology) for 12 hrs. Pellets were washed, boiled for 5 min in SDS sample buffer and subjected to SDS-PAGE. 50˜100 μg of total protein extract was used as control in each experiment. After transfer of proteins into nitrocellulose, membranes were Western blotted with the primary antibodies. The intensity of protein level was quantified by densitometry (software: ImageLab, Bio-Rad).
Acute brain slices (350 μm thick) were prepared from C57Bl/6 mice with a McIlwain tissue chopper (Mickle Laboratory Engineering, Gomshall, United Kingdom). After being dissected from the brain, mouse cerebral hemispheres were left for 5 min in ice-cold artificial cerebrospinal fluid (aCSF) containing 126 mM NaCl, 2.5 mM KCl, 1 mM MgCl2, 1 mM CaCl2, 1.25 mM KH2PO4, 26 mM NaHCO3 and 20 mM glucose, which was bubbled continuously with carbogen (95% O2/5% CO2). […]

[2] = system: GR and FKBP52 colocalization in primary neurons; test: Immunocytochemistry of GR and FKBP52 in primary mouse neurons; format: cell-based
Description: Cortical tissues from embryonic day (E14) mouse brains were dissected out, incubated with 0.25% trypsin for 15 min at 37° C., and dissociated by mechanical trituration. Neurons were then plated at a desired density onto glass coverslips previously coated with 0.1 mg/ml poly-d-lysine, and grown in Neurobasal medium with 1× Glutamax, 1×B27, 100 U/ml penicillin and 100 μg/ml streptomycin in an incubator (37° C., 5% CO2). Either 10 μM of TAT-GRpep, 10 μM TAT-control peptide or saline were added in culture plates for 45 min in advance at 8 days in vitro (8 DIV).
Cultured neurons were fixed in 4% PFA/4% sucrose, permeabilized with 0.1M PBS containing 0.1% Triton X-100 for 10 min, and blocked for 1 hour with 1% bovine serum albumin in PBS at room temperature. They were incubated with primary antibodies overnight at 4° C. and secondary antibodies for 1 hour at room temperature. The following primary antibodies were used: anti-GR (1:200; Thermo), anti-FKBP51 (1:200; Abcam) and anti-FKBP52 (1:200; Abcam). […] DAPI was used to stain cell nuclei.

[3] = system: GR-FKBP52 complex; test: Co-immunoprecipitation of GR-FKBP52 complex in brain of fear-conditioned mice; format: in vivo; settings: fear-conditioned mouse brain, 3 nmol/g i.p; vs TAT alone or saline; p<0.05, n=3
Description: as §1

[4] = system: GR phosphorylation at S211; test: Western blot of GR phosphorylation at S211 in brain lysate of fear-conditioned mice; format: in vivo, mouse; settings: brain lysate of fear-conditioned mice injected with TAT or TAT-GRpep; p<0.05, n=3
Description: To further investigate these findings, surface plasmon resonance (SPR) was used to estimate association and dissociation rates between GR and FKBP51. […] Thus, GR S211 phosphorylation seems to reduce GR affinity for FKBP51. Conversely, disruption of the GR-FKBP51 complex with TAT-GRpep could increase GR S211 phosphorylation, which is what was observed when comparing fear-conditioned mice treated with TAT-GRpep vs. TAT control or no treatment (FIG. 5 I-J).
as §1, with “Bio-Rad). […]” for “Bio-Rad).”

Question: Which “GR-FKBP51 complex level (co-immunoprecipitation)” value [1] does the source give for “GRKKRRQRRRPQSPWRSDLLIDENCLL (Amino Acid Sequence of TAT-GRpep Peptide)” here?
Answer: The value was “able to disrupt the GR-FKBP51 complex; also recorded: reduced GR-FKBP51 levels”.

Question: What about the “nuclear GR levels” value ([2]; primary mouse neuron cultures, confocal microscope) of the same sequence?
Answer: The value was “markedly increased nuclear GR levels”.

Question: What about the “nuclear GR-FKBP52 colocalization” value ([2]; primary neurons 8 DIV, 10 μM, 45 min) of the same sequence?
Answer: The value was “marked increase in nuclear GR-FKBP52 colocalization”.

Question: What about the “colocalization between GR and FKBP52” value ([2]; primary neurons 8 DIV, 10 μM, 45 min, vs saline and control peptide) of the same sequence?
Answer: Its value is “significantly more colocalization between GR and FKBP52; also recorded: co-localized more”.

Question: What about the “GR-FKBP52 complex (FKBP52 co-immunoprecipitated by GR antibody)” value [3] of the same sequence?
Answer: The value was “more FKBP52 was co-immunoprecipitated by GR antibody; also recorded: significant increases in GR-FKBP52 complex levels”.

Question: What about the “GR phosphorylation at S211” value [4] of the same sequence?
Answer: Its value is “able to block the decrease of GR phosphorylation at S211; also recorded: blocked the decrease in GR S211 phosphorylation”.
